Measured values: patent publication US20180140578A1, “METHODS AND COMPOSITIONS FOR THE DIAGNOSIS AND SELECTIVE TREATMENT OF CANCER” (Board of Regents of the University of Texas System, priority 2016, published 2018)

Assays:
[1] = advanced stage patients with solid tumors; monotherapy; cited from earlier work
[2] = target: T1, RBM39-3xFLAG with DDA1, DDB1, CUL4A, CUL4B (Homo sapiens, UniProt Q14498+Q66K64); experiment: Co-immunoprecipitation of RBM39-3xFLAG from treated cells; assay type: cell-based; conditions: cells treated with indisulam but not DMSO
T1 construct: endogenous in cells; host or cells: HCT-116 RBM39-3xFLAG knock-in cells (treated cells in A90)
Procedure: Anti-Flag M2 antibody (Sigma-Aldrich) was coupled to Dynabeads M-270 epoxy beads (Life Technologies) at the ratio of 10 μg of antibody/mg beads. […] Frozen cells were then pulverized in the a cryomill (Retsch) with one 25 mm steel ball and five cycles of three min at 25 Hz with intermittent cooling in liquid nitrogen. […] The lysates were centrifuged at 8000 g for 5 min at 4° C. 12 mg of conjugated Anti-Flag magnetic beads were mixed with clarified lysates for 5 min at 4° C. on a rotating platform, followed by three washes with IP buffer. Bound proteins were eluted with 1 mg/ml 3xFLAG peptide, followed by SDS-PAGE on a 10% Bis Tris gel. After brief electrophoresis, bands containing all the proteins were cut with clean blades. For western blotting of co-immunoprecipitated proteins, anti-DDA1 (ProteinTech, 14995-1-AP, 1:1000), anti-DDB1 (Abcam, ab109027, 1;10000), anti-CUL4A (Cell Signaling, 2699, 1:1000), anti-CUL4B (ProteinTech, 12916-1-AP, 1:1000) were used.

RBM39-3xFLAG = target: T2, RBM39-3xFLAG (Homo sapiens, UniProt Q14498+Q66K64); experiment: In vivo polyubiquitination of RBM39; assay type: cell-based; conditions: DCAF15 co-expressed; 293T cells
T2 construct: expressed in transfected cells; host or cells: 293T
Procedure: cDNAs encoding RBM39-3xFLAG, RBM39 G268V-3xFLAG, and DCAF15-V5 were cloned into the pCDNA3.1+vector. pCMV 8XHis Ub was a gift from William Kaelin (Dana Farber Cancer Institute). 0.4 million 293T cells were seeded per well on 6-well plates and allowed to attach overnight. 250 ng of pCMV 8XHis Ub, 500 ng of pCDNA3-DCAF15-V5, 10 ng of either pCDNA3-RBM39-3xFLAG or pCDNA3-RBM39 G268V-3xFLAG were transfected. […] Cells were lifted from the plates by pipetting, pelleted by centrifugation, and washed once with PBS. Purification of His-Ub tagged proteins was performed as described (5).

[3] = test system: RBM39 with indisulam-resistant mutations; experiment: RBM39 degradation in resistant cells (western blotting); assay type: cell-based, human; conditions: resistant cells harboring indisulam-resistant mutations
Procedure: (§1) Proteins were resolved on SDS-PAGE and transferred to 0.5 μm nitrocellulose membranes. Membranes were blocked in 5% milk TBST for 30 min, and then anti-RBM39 antibodies (HPA001591, Sigma-Aldrich) were added in 5% milk (1:5000) and incubated on a shaker overnight at 4° C. After three 5 min washes with TBST, membranes were incubated with HRP-conjugated goat anti-rabbit secondary antibody (Bio-Rad) for 2 hr at room temperature. After three 5 min washes with TBST, membranes were developed with ECL (enhanced chemiluminescence) substrates.

[4] = test system: H1155 cells transduced with DCAF15-3xFLAG cDNA; experiment: Cell viability assay, DCAF15 overexpression; assay type: cell-based, human; conditions: H1155 cells expressing higher than normal levels of DCAF15
[5] = target: T3, DDB1:DCAF15-GST and RBM39Δ150 (Homo sapiens, UniProt Q14498+Q66K64); experiment: Indisulam dependent co-fractionation of DCAF15-DDB1 and RBM39 (size exclusion chromatography); assay type: binding; conditions: 10 μM indisulam
T3 construct: made in house; host or cells: Sf9 (baculovirus)
Procedure: RBM39 lacking the first 150 amino acids after the start codon (RBM39Δ150) was cloned into the pFastBac1 (Life Technologies) vector. Site-directed Mutagenesis of RBM39 was performed using Q5 site-directed mutagenesis kit (NEB). DCAF15-GST (C-terminal GST tag) and DDB1 were also cloned into pFastBac1. The production of baculovirus was carried out following vendor's instructions. Protein was expressed in SF9 cells by infection with each protein specific baculovirus, and cells were harvested 48 hr later and frozen in liquid nitrogen. For purification of RBM39Δ150, frozen cells were pulverized by cryomill and resuspended in lysis buffer (40 mM Tris, pH 7.5, 225 mM NaCl, 1× […] Protease inhibitor). The lysate was passed through a 22 gauge needle 2 times followed by ultracentrifugation at 25000 rpm for 30 min. Clarified lysate was incubated with Ni-NTA agarose (Qiagen) for 30 min with rotation at 4° C. Resin and bound protein were washed with wash buffer 1 (40 mM Tris, pH 7.5, 225 mM NaCl) followed by wash buffer 2 (40 mM Tris, pH 7.5, 20 mM imidazole, 225 mM NaCl). Proteins were eluted with elution buffer (40 mM Tris, pH 7.5, 300 mM imidazole, 225 mM NaCl) and concentrated to 0.5 ml. […]
The mixture was incubated for 1 hour with rotation at 4° C. […] 1 ml fractions were collected and analyzed by SDS-PAGE and coomassie blue staining.

[6] = test system: RBM39 in DCAF15−/− H1155 cells; experiment: RBM39 degradation in DCAF15−/− cells (western blotting); assay type: cell-based, human
Procedure: as §1
Two independent guide RNAs targeting DDB1, DDA1, DCAF15 were cloned into PX459. 0.2 million H1155 RBM39-AcGFP cells were transfected with PX459 sgRNA constructs and selected with 2 μg/ml puromycin to enrich for transfected cells. […] Cells were then trypsinized and the expression of RBM39-AGFP was quantified with flow cytometry. H1155 cells transfected with DCAF15 guide RNA were sparsely plated on 10 cm^2 plates and clones were isolated. Genomic DNA sequence flanking the cut site were amplified and sequenced to identify DCAF15−/− clones.

T3 sequence (Q66K64 whole entry, stated change not applied): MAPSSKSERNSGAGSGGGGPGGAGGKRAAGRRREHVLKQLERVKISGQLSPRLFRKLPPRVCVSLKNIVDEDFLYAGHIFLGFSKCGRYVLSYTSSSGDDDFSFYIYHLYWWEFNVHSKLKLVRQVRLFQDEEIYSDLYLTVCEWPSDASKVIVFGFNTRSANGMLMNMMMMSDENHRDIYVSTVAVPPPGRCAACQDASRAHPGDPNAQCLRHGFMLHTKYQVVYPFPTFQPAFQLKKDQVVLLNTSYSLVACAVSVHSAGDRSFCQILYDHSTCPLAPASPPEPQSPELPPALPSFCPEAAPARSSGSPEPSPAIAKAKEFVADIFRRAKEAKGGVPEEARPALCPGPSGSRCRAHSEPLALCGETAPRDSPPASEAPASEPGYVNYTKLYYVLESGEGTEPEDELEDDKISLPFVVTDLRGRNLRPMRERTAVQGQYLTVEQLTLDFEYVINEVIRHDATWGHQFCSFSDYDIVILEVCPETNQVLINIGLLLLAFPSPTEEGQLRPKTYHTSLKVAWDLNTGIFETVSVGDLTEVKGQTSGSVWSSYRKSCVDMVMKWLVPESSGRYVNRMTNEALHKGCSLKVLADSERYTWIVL
T3 sequence (Q14498 151-530 limits assumed, stated change not applied): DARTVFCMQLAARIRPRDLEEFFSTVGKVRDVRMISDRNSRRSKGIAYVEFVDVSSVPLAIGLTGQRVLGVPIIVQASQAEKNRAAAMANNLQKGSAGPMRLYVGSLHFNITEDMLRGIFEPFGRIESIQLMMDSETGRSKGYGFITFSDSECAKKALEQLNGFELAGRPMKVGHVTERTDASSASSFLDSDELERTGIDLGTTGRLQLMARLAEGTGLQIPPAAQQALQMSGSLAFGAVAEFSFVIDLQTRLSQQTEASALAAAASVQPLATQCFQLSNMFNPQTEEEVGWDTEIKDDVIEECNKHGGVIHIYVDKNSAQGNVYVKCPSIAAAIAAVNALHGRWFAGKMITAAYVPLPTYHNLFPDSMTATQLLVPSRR
T3 sequence (Q16531 whole entry partner): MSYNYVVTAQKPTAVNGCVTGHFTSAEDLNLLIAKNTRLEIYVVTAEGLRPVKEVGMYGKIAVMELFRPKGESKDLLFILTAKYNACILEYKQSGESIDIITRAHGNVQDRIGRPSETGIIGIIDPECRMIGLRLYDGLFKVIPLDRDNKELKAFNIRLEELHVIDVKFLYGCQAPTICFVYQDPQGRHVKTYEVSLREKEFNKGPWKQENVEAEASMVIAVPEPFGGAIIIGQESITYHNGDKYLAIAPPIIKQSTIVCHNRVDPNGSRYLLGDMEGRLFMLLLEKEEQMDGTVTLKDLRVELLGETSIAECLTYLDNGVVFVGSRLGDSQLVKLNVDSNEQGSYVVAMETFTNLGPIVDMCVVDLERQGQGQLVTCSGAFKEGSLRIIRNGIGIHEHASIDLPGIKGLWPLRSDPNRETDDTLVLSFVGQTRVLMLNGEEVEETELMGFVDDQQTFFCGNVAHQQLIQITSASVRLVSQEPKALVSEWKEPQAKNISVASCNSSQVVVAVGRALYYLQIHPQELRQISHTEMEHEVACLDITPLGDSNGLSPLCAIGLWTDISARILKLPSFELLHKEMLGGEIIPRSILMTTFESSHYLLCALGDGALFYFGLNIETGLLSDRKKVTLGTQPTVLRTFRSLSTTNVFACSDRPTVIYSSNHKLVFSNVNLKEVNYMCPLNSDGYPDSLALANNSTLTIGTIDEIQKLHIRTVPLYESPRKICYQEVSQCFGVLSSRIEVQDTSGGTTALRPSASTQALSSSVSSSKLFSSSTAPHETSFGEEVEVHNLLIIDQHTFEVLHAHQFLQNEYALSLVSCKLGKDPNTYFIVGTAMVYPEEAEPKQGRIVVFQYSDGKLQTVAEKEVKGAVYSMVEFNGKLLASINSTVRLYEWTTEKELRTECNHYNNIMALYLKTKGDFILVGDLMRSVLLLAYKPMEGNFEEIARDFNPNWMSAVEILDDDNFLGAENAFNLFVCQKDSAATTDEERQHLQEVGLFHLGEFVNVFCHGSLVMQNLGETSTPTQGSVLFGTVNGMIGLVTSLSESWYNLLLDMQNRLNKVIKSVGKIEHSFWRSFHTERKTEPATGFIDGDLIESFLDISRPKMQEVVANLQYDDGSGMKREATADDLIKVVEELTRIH

NS(=O)(=O)c1ccc(S(=O)(=O)Nc2cccc3c(Cl)c[nH]c23)cc1 [Indisulam, indisulam]
stable disease [1]: 17-36 % of patients | co-purification of RBM39-3xFLAG with DDA1, DDB1, CUL4A, CUL4B [2]: co-purified | RBM39 ubiquitination (RBM39-3xFLAG): increased RBM39 ubiquitination | RBM39 protein levels [3]: no effect | sensitivity vs mock treated cells [4]: more sensitive | elution of RBM39Δ150 with DDB1:DCAF15-GST peak [5]: co-elutes | RBM39 degradation in response to indisulam [6]: failed to degrade RBM39
